Laboratory results reported in US11919858B2, “Aminonapthoquinone compounds and pharmaceutical composition for blocking ubiquitination-proteasome system in diseases” (Calgent Biotechnology Co., Ltd., priority 2015, dated 2024).
Read-outs that look alike come from different tables or passages of the source.

Legend:
[1] = tested on: HCT116 human colorectal adenocarcinoma
Description: MPT0L056 was used to evaluate for activity against the HCT116 human colorectal adenocarcinoma.
However, MPT0E028 was administered orally (p.o.) in 1.0% CMC and 0.5% Tween 80 and given dose at 25 mg/kg daily to end schedule.
Each animal was euthanized when the tumors reached the predetermined endpoint size of 1,000 mm^3. The time to endpoint (TTE) for each mouse was calculated by the following equation:
[formula] where TTE is expressed in days, endpoint volume is in mm^3, b is the intercept, and m is the slope of the line obtained by linear regression of a log-transformed tumor growth data set. The data set is comprised of the first observation that exceeded the study endpoint volume and the three consecutive observations that immediately preceded the attainment of the endpoint volume. The calculated TTE is usually less than the day on which an animal is euthanized for tumor size. […] An animal classified as having died from treatment-related (TR) causes or non-treatment-related metastasis (NTRm) causes was assigned a TTE value equal to the day of death. An animal classified as having died from non-treatment-related (NTR) causes was excluded from TTE calculations.
Treatment efficacy was determined from tumor growth delay (TGD), which is defined as the increase in the median TTE for a treatment group compared to the control group: TGD=T−C, expressed in days, or as a percentage of the median TTE of the control group:
[formula] where: • T=median TTE for a treatment group, • C=median TTE for control Group 1.
Treatment efficacy was also determined from the tumor volumes of animals remaining in the study on the last day, and from the number of regression responses. The MTV(n) is defined as the median tumor volume on D59 in the number of animals remaining, n, whose tumors have not attained the endpoint volume.
Treatment may cause a partial regression (PR) or a complete regression (CR) of the tumor in an animal. […] An animal with a CR at the termination of a study is additionally classified as a tumor-free survivor (TFS).
Animals were weighed daily for the first five days, then twice weekly until the completion of the study. The mice were examined frequently for overt signs of any adverse, drug-related side effects. Acceptable toxicity for the MTD of cancer drugs is defined as a group mean BW loss of 20% or less during the test, and not more than one TR death among ten animals. A death is classified as TR if there is evidence of treatment side effects from clinical signs and/or necropsy or from unknown causes during dosing period or within 10 days of the last dose. A death is classified as NTR if there is no evidence that the death was related to treatment side effects.
The logrank test was used to determine the statistical significance of the difference between the TTE values of two groups, except any NTR deaths. Statistical and graphical analyses were performed with Prism 3.03 (GraphPad) for Windows. The two-tailed statistical analyses were conducted at P=0.05. Kaplan-Meier plots show the percentage of animals remaining in the study versus time. The Kaplan-Meier plots use the same data set as the log rank test. The tumor growth curves show the group median tumor volume, on a log scale as a function of time.

[2] = tested on: human MDA-MB-231 breast adenocarcinoma; test: Human MDA-MB-231 breast cancer xenograft in female nude mice (TMU-MDA-MB-231-e0002); conditions: bortezomib 1 mg/kg QWK to end
[3] = tested on: human A2780 ovarian adenocarcinoma; test: Human A2780 ovarian cancer xenograft in female nude mice (TMU-A2780-e0001); assay type: in vivo; conditions: bortezomib 1 mg/kg QWK to end
[4] = Group 3: bortezomib 1 mg/kg iv qwk to endpoint
[5] = Group 3: bortezomib 1 mg/kg iv qwk to endpoint, listed as Bortezomib
[6] = Group 6: bortezomib 1 mg/kg iv qwk + MPT0E028 25 mg/kg po qd to endpoint
[7] = Group 6: bortezomib 1 mg/kg iv qwk + MPT0E028 25 mg/kg po qd to endpoint, listed as Bortezomib

`CC(C)C[C@H](NC(=O)[C@H](Cc1ccccc1)NC(=O)c1cnccn1)B(O)O` [bortezomib, reference compound] was tested, and the “Median survival” value ([1]; Group 1 vs 3: bortezomib 1 mg/kg) was 38.95, the “Median survival” value ([1]; Group 1 vs 6: bortezomib + MPT0E028 1/25 mg/kg) was 38.4 and the “% TGD” value [1, 4] was 71%. The “MTV (n) Day 59” value [1, 4] was 683 mm^3, the “Median TTE” value [1, 4] was 38.9 days and the “No. of CR” value [1, 4] was 2. The “No. of LTTFS” value [1, 4] was 0, the “No. of NTR” value [1, 4] was 0 and the “No. of PR” value [1, 4] was 1. For the same compound, the “No. of TR” value [1, 4] was 0, the T-C [1, 4] was 16.2 days and the “antitumor activity (logrank analysis)” value [1, 4] was “produced significant antitumor activity”. For the same compound, the “Logrank Significance” value ([1]; Group 3: bortezomib 1 mg/kg iv qwk to endpoint, compared to Group 1) was “* (* = P < 0.05)”, the “% TGD” value [1, 5] was 71% and the “No. of CR” value [1, 5] was “two”. For the same compound, the “No. of PR” value [1, 5] was “one”, the “% TGD” value [1, 6] was 69% and the “MTV (n) Day 59” value [1, 6] was 0 mm^3. The “Median TTE” value [1, 6] was 38.4 days, the “No. of CR” value [1, 6] was 1 and the “No. of LTTFS” value [1, 6] was 1. For the same compound, the “No. of NTR” value [1, 6] was 4, the “No. of PR” value [1, 6] was 1 and the “No. of TR” value [1, 6] was 0. The T-C [1, 6] was 15.7 days, the “% TGD” value [1, 7] was 69% and the “No. of CR” value [1, 7] was “one”. For the same compound, the “No. of LTTFS” value [1, 7] was “one”, the “No. of PR” value [1, 7] was “one” and the antitumor activity [2] was “did not show antitumor activity”. For the same compound, the antitumor activity [3] was “showed antitumor activity”.
